Entries after “also recorded” stand apart in the source; their conditions may differ.
Biological target: SARS-CoV-2 spike glycoprotein ectodomain (Severe acute respiratory syndrome coronavirus 2, UniProt P0DTC2, K986P/R682G/R683S/R685S/V987P)
Type: binding
Details: pH 7.5

## C#CCN1CCC(CCNc2ccnc3ccccc23)CC1 [GEN727]
  Effect on stability of the spike (thermofluor): appeared to reduce the speed of the transition of the spike to a less stable form; also recorded: somewhat destabilized the spike

— publication PMC10284550, “Accelerating drug target inhibitor discovery with a deep generative foundation model” (Science Advances, 2023)
